From ChEMBL document CHEMBL3124770, “Rugulactone derivatives act as inhibitors of NF-κB activation and modulates the transcription of NF-κB dependent genes in MDA-MB-231cells” (Bioorg Med Chem Lett, 2014) come the findings set out here.

SMILES strings stand for the structures. Calls of active or inactive are those of the source. The calls are words filed in the database; no cut-off is given here.

Test [1] deals with MDA-MB-231. Kind of test: Induction of apoptosis in estrogen receptor-negative human MDA-MB-231 cells assessed as increase in Rb cleavage at 2 uM after 24 hrs by Western blotting analysis. It is filed as functional, cell-based. Background: Immunoblotting shows a protein as a band on a membrane.
Test [2] deals with MDA-MB-231. Nature of the test: Inhibition of NFkappaB activity in estrogen receptor-negative human MDA-MB-231 cells assessed as retention of NFKappaB/Rel A in cytoplasm at 2 uM after 24 hrs by DAPI/PI staining-based confocal microscopy. It is filed as cell-based.
Test [3] relates to MDA-MB-231. Kind of test: Inhibition of NFkappaB activity in estrogen receptor-negative human MDA-MB-231 cells assessed as inhibition of cyclin D1 promoter activation at 2 uM by chromatin immunoprecipitation assay. It is filed as cell-based.
Test [4] relates to MDA-MB-231. Kind of test: Cytotoxicity against estrogen receptor-negative human MDA-MB-231 cells assessed as cell viability after 72 hrs by MTT assay. It is filed as functional, cell-based. The following applies: MDA-MB-231, 72 h.
The test system of test [5] is MCF7. Nature of the test: Inhibition of NFkappaB activity in estrogen receptor-positive human MCF7 cells at 2 uM after 24 hrs by SEAP reporter assay. The format is cell-based. A general note: Reporter assays use an easily measured gene product as a stand-in for the process of interest.
The test system of test [6] is MCF7. Kind of test: Cytotoxicity against estrogen receptor-positive human MCF7 cells assessed as cell viability after 72 hrs by MTT assay. It is filed as functional, cell-based. The following applies: MCF7, 72 h. A general note: Formazan colour is commonly taken as a measure of viable cells.
For test [7], the system named is MDA-MB-231. Kind of test: Inhibition of NFkappaB activity in estrogen receptor-negative human MDA-MB-231 cells assessed as reduction of cyclin D1 expression at 2 uM after 24 hrs by Western blotting analysis. It is filed as cell-based.
Test [8] has as its system MDA-MB-231. Kind of test: Cell cycle arrest in estrogen receptor-negative human MDA-MB-231 cells assessed as accumulation at G1 phase at 2 uM after 24 hrs by Propidium iodide staining-based flow cytometric analysis (reference value: 54.66 +/- 2.51%). It is filed as functional.
Test [9] deals with MDA-MB-231. Nature of the test: Effect on p21 gene expression in estrogen receptor-negative human MDA-MB-231 cells at 2 uM after 24 hrs by luciferase reporter gene assay. It is filed as functional, cell-based.
Test [10] deals with MDA-MB-231. Nature of the test: Cell cycle arrest in estrogen receptor-negative human MDA-MB-231 cells assessed as accumulation at S phase at 2 uM after 24 hrs by Propidium iodide staining-based flow cytometric analysis (reference value: 19 +/- 1%). The format is functional.
The subject of test [11] is MDA-MB-231. Kind of test: Inhibition of NFkappaB activity in estrogen receptor-negative human MDA-MB-231 cells assessed as upregulation of p27 gene expression at 2 uM after 24 hrs by luciferase reporter gene assay relative to control. The format is cell-based.
The subject of test [12] is MDA-MB-231. Nature of the test: Reduction in HDAC-8 nuclear expression in estrogen receptor-negative human MDA-MB-231 cells at 2 uM after 24 hrs by Western blotting analysis. The format is functional, cell-based.
Test [13] has as its system MDA-MB-231. Kind of test: Induction of apoptosis in estrogen receptor-negative human MDA-MB-231 cells assessed as reduced procaspase-3 level at 2 uM after 24 hrs by Western blotting analysis. It is filed as functional, cell-based.
Test [14] deals with MDA-MB-231. Nature of the test: Reduction in HDAC-3 nuclear expression in estrogen receptor-negative human MDA-MB-231 cells at 2 uM after 24 hrs by Western blotting analysis. It is filed as functional, cell-based.
The subject of test [15] is MDA-MB-231. Kind of test: Induction of apoptosis in estrogen receptor-negative human MDA-MB-231 cells assessed as increase in PARP cleavage at 2 uM after 24 hrs by Western blotting analysis. The format is functional, cell-based.
The test system of test [16] is MDA-MB-231. Kind of test: Inhibition of NFkappaB activity in estrogen receptor-negative human MDA-MB-231 cells assessed as cytoplasmic localization of p65 at 2 uM after 24 hrs by ELISA. The format is cell-based.
In test [17] the test system is MDA-MB-231. Nature of the test: Cell cycle arrest in estrogen receptor-negative human MDA-MB-231 cells assessed as decrease in Cyclin E expression at 2 uM after 24 hrs by Western blotting analysis. It is filed as functional, cell-based.
In test [18] the test system is MDA-MB-231. Nature of the test: Cell cycle arrest in estrogen receptor-negative human MDA-MB-231 cells assessed as decrease in CDK2 expression at 2 uM after 24 hrs by Western blotting analysis. It is filed as functional, cell-based.
Test [19] has as its system MDA-MB-231. Kind of test: Inhibition of NFkappaB activity in estrogen receptor-negative human MDA-MB-231 cells at 2 uM after 24 hrs by SEAP reporter assay. The format is cell-based.
Test [20] relates to MDA-MB-231. Kind of test: Inhibition of NFkappaB activity in estrogen receptor-negative human MDA-MB-231 cells assessed as reduction of p65 expression at 2 uM after 24 hrs by Western blotting analysis. The format is cell-based.
Test [21] relates to MDA-MB-231. Kind of test: Cell cycle arrest in estrogen receptor-negative human MDA-MB-231 cells assessed as accumulation at G2/M phase at 2 uM after 24 hrs by Propidium iodide staining-based flow cytometric analysis (reference value: 26.33 +/- 3.05%). The format is functional.
For test [22], the system named is MDA-MB-231. Kind of test: Inhibition of NFkappaB activity in estrogen receptor-negative human MDA-MB-231 cells assessed as reduction of Bcl-xL expression at 2 uM after 24 hrs by Western blotting analysis. It is filed as cell-based.

Regarding `CCCCCCCCCCCCCCCCCC(=O)/C=C/C[C@@H]1CC=CC(=O)O1`, the result in the test with MDA-MB-231 [1], in the test on MDA-MB-231 [12], in the test with MDA-MB-231 [13], in the test on MDA-MB-231 [14], with MDA-MB-231 [15] and in the test with MDA-MB-231 [17] was Active. The outcome with MDA-MB-231 [18] was Active. Also, the NF-kappaB activity inhibition result in the test with MDA-MB-231 [2] is “Active”. Besides, the inhibition result in the test with MDA-MB-231 [3], in the test on MCF7 [5], in the test with MDA-MB-231 [7], in the test with MDA-MB-231 [16], with MDA-MB-231 [19] and in the test with MDA-MB-231 [20] was “Active” in each case. The inhibition entry with MDA-MB-231 [22] was “Active”. Besides, the IC50 (usually the midpoint of a concentration-inhibition curve) stood at 2100 nM in the test on MDA-MB-231 [4] and 2320 nM in the test with MCF7 [6]. Also, the Activity with MDA-MB-231 [8] amounted to 74%; in the test with MDA-MB-231 [10] it was 6.33%; in the test with MDA-MB-231 [21], 19.6%. Further, in the test on MDA-MB-231 [9], the outcome was inactive. The fold change (FC) with MDA-MB-231 [11] came to 2.5.
